{"source": "patent EP1487791B1", "about": "“A NOVEL ANTIFUNGAL MOLECULE 2-(3,4-DIMETHYL-2,5-DIHYDRO-1H-PYRROL-2-YL)- METHYLETHYL PENTANOATE” (priority 2002, dated 2003)", "origin": "cited, not measured here", "settings": "reported by Zager, R.A., 2000; cited from earlier work"}
{"smiles": "C[C@@H]1[C@H](O)[C@@H](C)/C=C/C=C/C=C/C=C/C=C/C=C/C=C/[C@H](O[C@@H]2O[C@H](C)[C@@H](O)[C@H](N)[C@@H]2O)C[C@@H]2O[C@](O)(C[C@@H](O)C[C@@H](O)[C@H](O)CC[C@@H](O)C[C@@H](O)CC(=O)O[C@H]1C)C[C@H](O)[C@H]2C(=O)O", "note": "[amphotericin B]", "values": [{"measurement": "CT50", "result": "4.0 to 64.0", "unit": "µg/mL"}]}
